1 molecule from PubChem BioAssay (NCI) can be followed below.

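Growth conditions: 96-well plates. Treatment: test compound, 48 hours, 5 concentrations. Analysis: linear interpolation between bracketing concentrations; unreached endpoints set to highest concentration. Here, GI50 denotes the concentration required for 50% inhibition of growth. At the TGI there is no net growth.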

Common to all, as to test: NCI-60 cell line screen, 48 h
For experiment [1], the system named is ACHN renal.
The subject of experiment [2] is BT-549 breast.
Experiment [3] concerns CCRF-CEM leukemia.
The subject of experiment [4] is HL-60(TB) leukemia.
For experiment [5], the system named is KM12 colon.
Experiment [6] concerns M14 melanoma.
The subject of experiment [7] is MDA-MB-231 breast.
In experiment [8] the test system is MOLT-4 leukemia.
The test system of experiment [9] is SK-MEL-5 melanoma.
Experiment [10] concerns SNB-19 CNS.

Take `N#Cc1cnc2cc(OC[C@H](O)CO)c(NC(=O)CC3CSSC3)cc2c1Nc1ccc(OCc2cccc(F)c2)c(Cl)c1`: the GI50 in experiment [1] was 1730 nM; in experiment [2], 133 nM; in experiment [3], 92.3 nM; in experiment [4], 806 nM; in experiment [5], 155 nM; in experiment [6], 139 nM. Also, the GI50 was 288 nM in [7], 93.1 nM in experiment [8], 841 nM in [9] and 447 nM in experiment [10]. For the same molecule, the TGI in experiment [1] came to 5.42 µM; in [2], 430 nM; in experiment [3], 251 nM; in [4] it was 1930 nM; in experiment [5], 450 nM; in experiment [6] it was 447 nM. For the same molecule, the TGI was determined as 1030 nM in experiment [7], 209 nM in experiment [8], 1590 nM in experiment [9] and 1430 nM in experiment [10].
